Literature values as cited in patent US5872104A, “Combinations and methods for reducing antimicrobial resistance” (Oridigm Corporation, priority 1994, dated 1999).
Values after ≈ are worked out from the molar mass of the structure shown. Values joined by “and” are separate entries in the source; they are usually repeats but may differ in a detail not shown here. Equal values may be shown once. Read-outs that look alike come from different tables or passages of the source.

Key:
Bacillus spp. = conditions: cited from earlier work
Bacteroides fragilis [1] = conditions: cited from earlier work
[2] = tested on: Bordetella bronchiseptica; conditions: cited from earlier work
Bordetella parapertussis = conditions: cited from earlier work
Bordetella pertussis [3] = conditions: cited from earlier work
Borrelia burgdorferi = conditions: cited from earlier work
[4] = tested on: Branhamella (Moraxella) catarrhalis; conditions: cited from earlier work
Campylobacter jejuni = conditions: in µg/mL; cited from earlier work
Campylobacter pylori = conditions: cited from earlier work
Corynebacterium JK = conditions: cited from earlier work
Enterococcus faecium = conditions: cited from earlier work
Enterococcus spp. = conditions: cited from earlier work
Haemophilus ducreyi = conditions: cited from earlier work
Haemophilus influenzae = conditions: cited from earlier work
[5] = tested on: Haemophilus influenzae (penicillin susceptible); conditions: cited from earlier work
[6] = tested on: Haemophilus influenzae (penicillin resistant); conditions: cited from earlier work
[7] = tested on: Haemophilus parainfluenzae; conditions: cited from earlier work
Legionella spp. = conditions: cited from earlier work
Listeria monocytogenes [8] = conditions: in µg/mL; cited from earlier work
Mycoplasma pneumoniae [9] = conditions: cited from earlier work
Neisseria gonorrhoeae [10] = conditions: cited from earlier work
[11] = tested on: Neisseria gonorrhoeae (non β-lactamase producer); conditions: cited from earlier work
Neisseria meningitidis = conditions: cited from earlier work
Nocardia asteroides = conditions: cited from earlier work
Staphylococcus aureus = conditions: cited from earlier work
[12] = tested on: Staphylococcus aureus (penicillin susceptible); conditions: cited from earlier work
[13] = tested on: Staphylococcus aureus (penicillin resistant); conditions: cited from earlier work
[14] = tested on: Staphylococcus aureus (methicillin susceptible); conditions: in µg/mL; cited from earlier work
[15] = tested on: Staphylococcus coagulase .phi.; conditions: cited from earlier work
[16] = tested on: Staphylococcus coagulase .phi. (non β-lactamase producer); conditions: cited from earlier work
[17] = tested on: Staphylococcus coagulase .phi. (β-lactamase producer); conditions: cited from earlier work
[18] = tested on: Staphylococcus epidermidis; conditions: cited from earlier work
[19] = tested on: Staphylococcus haemolyticus; conditions: cited from earlier work
Staphylococcus hominis = conditions: cited from earlier work
Streptococcus agalactiae = conditions: cited from earlier work
Streptococcus pyogenes = conditions: cited from earlier work
Streptococcus spp. = conditions: cited from earlier work
Ureaplasma urealyticum = conditions: cited from earlier work
[20] = tested on: Staphylococcus aureus, methicillin susceptible; conditions: in µg/mL; cited from earlier work
[21] = tested on: Streptococcus pyogenes (group A), erythromycin susceptible; conditions: cited from earlier work
Streptococcus pneumoniae = conditions: in µg/mL; cited from earlier work
[22] = tested on: Streptococcus agalactactiae (group B); conditions: in µg/mL; cited from earlier work
Viridans streptococci = conditions: cited from earlier work
Listeria monocytogenes [23] = conditions: in µg/mL; cited from earlier work; remark: listed apart in the source
Moraxella catarrhalis = conditions: in µg/mL; cited from earlier work
Neisseria gonorrhoeae [24] = conditions: in µg/mL; cited from earlier work
N. meningitidis = conditions: in µg/mL; cited from earlier work
Bordetella pertussis [25] = conditions: in µg/mL; cited from earlier work
Legionella pneumophila = conditions: in µg/mL; cited from earlier work
Bacteroides fragilis [26] = conditions: anaerobes; in µg/mL; cited from earlier work
Clostridium perfringens = conditions: anaerobes; in µg/mL; cited from earlier work
[27] = tested on: Chlamydia pneumoniae (formerly TWAR); conditions: in µg/mL; cited from earlier work
Chlamydia trachomatis = conditions: in µg/mL; cited from earlier work
Mycoplasma pneumoniae [28] = conditions: in µg/mL; cited from earlier work
S. aureus = conditions: agar disc susceptibility test; cited from earlier work
[29] = in vivo; cited from earlier work

CC[C@H]1OC(=O)[C@H](C)[C@@H](O[C@H]2C[C@@](C)(OC)[C@@H](O)[C@H](C)O2)[C@H](C)[C@@H](O[C@@H]2O[C@H](C)C[C@H](N(C)C)[C@H]2O)[C@](C)(O)C[C@@H](C)C(=O)[C@H](C)[C@@H](O)[C@]1(C)O [Erythromycin]
MIC50 (Bacillus spp.): 0.25 µg/mL (≈ 0.341 µM) | MIC90 (Bacillus spp.): 2 µg/mL (≈ 2.73 µM) | Range (Bacillus spp.): 0.03-2 | MIC50 (Bacteroides fragilis [1]): 1 µg/mL (≈ 1.36 µM) | MIC90 (Bacteroides fragilis [1]): 8 µg/mL (≈ 10.9 µM) | Range (Bacteroides fragilis [1]): ≤0.25-16 | MIC50 [2]: 8 µg/mL (≈ 10.9 µM) | MIC90 [2]: 32 µg/mL (≈ 43.6 µM) | Range [2]: 4-32 | MIC50 (Bordetella parapertussis): 0.25 µg/mL (≈ 0.341 µM) | MIC90 (Bordetella parapertussis): 0.25 µg/mL (≈ 0.341 µM) | MIC50 (Bordetella pertussis [3]): 0.25 µg/mL (≈ 0.341 µM) | MIC50 (Borrelia burgdorferi): 0.03 µg/mL (≈ 0.0409 µM) | MIC90 (Borrelia burgdorferi): 0.06 µg/mL (≈ 0.0818 µM) | MIC50 [4]: 0.25 µg/mL (≈ 0.341 µM) | MIC90 (Campylobacter jejuni): 4 and 2 | MIC50 (Campylobacter pylori): 0.5 µg/mL (≈ 0.681 µM) | Range (Campylobacter pylori): 0.25-16 | MIC50 (Corynebacterium JK): 2 µg/mL (≈ 2.73 µM) | MIC90 (Corynebacterium JK): ≥ 64 µg/mL | MIC50 (Enterococcus faecium): 1 µg/mL (≈ 1.36 µM) | MIC90 (Enterococcus faecium): ≥ 64 µg/mL | MIC50 (Enterococcus spp.): 2 µg/mL (≈ 2.73 µM) | MIC90 (Enterococcus spp.): ≥ 32 µg/mL | MIC50 (Haemophilus ducreyi): 4 ng/mL (≈ 0.00545 µM) | MIC90 (Haemophilus ducreyi): 0.06 µg/mL (≈ 0.0818 µM) | Range (Haemophilus influenzae): 0.5-8 | MIC50 (Haemophilus influenzae; in µg/mL): 2 and 1 | MIC50 [5]: 8 µg/mL (≈ 10.9 µM) | MIC90 [5]: 16 µg/mL (≈ 21.8 µM) | Range [5]: 0.25-16 | MIC50 [6]: 8 µg/mL (≈ 10.9 µM) | MIC90 [6]: 16 µg/mL (≈ 21.8 µM) | Range [6]: 8-16 | MIC50 [7]: 2 µg/mL (≈ 2.73 µM) | MIC90 [7]: 4 µg/mL (≈ 5.45 µM) | Range [7]: 0.5-8 | MIC90 (Legionella spp.): 0.25 µg/mL (≈ 0.341 µM) | MIC50 (Listeria monocytogenes [8]): 0.5 and 0.25 | MIC90 (Mycoplasma pneumoniae [9]): ≤ 4 ng/mL | MIC50 (Neisseria gonorrhoeae [10]): 0.25 µg/mL (≈ 0.341 µM) | MIC90 (Neisseria gonorrhoeae [10]): 1 µg/mL (≈ 1.36 µM) | Range (Neisseria gonorrhoeae [10]): 0.0075-8 | Range [11]: 0.015-4 and 0.03-2 | MIC50 (Neisseria meningitidis): 1 µg/mL (≈ 1.36 µM) | MIC90 (Neisseria meningitidis): 8 µg/mL (≈ 10.9 µM) | Range (Neisseria meningitidis): 0.5-8 | MIC50 (Nocardia asteroides): ≥ 8 µg/mL | MIC90 (Nocardia asteroides): ≥ 8 µg/mL | MIC50 (Staphylococcus aureus): 0.5 µg/mL (≈ 0.681 µM) | MIC90 [12]: 0.5 µg/mL (≈ 0.681 µM) | MIC50 ([12]; in µg/mL): 0.5 and 0.25 | MIC50 [13]: 0.25 µg/mL (≈ 0.341 µM) | MIC90 [13]: ≥ 32 µg/mL | MIC50 [14]: 0.25 and 0.5 | MIC50 [15]: 0.25 µg/mL (≈ 0.341 µM) | MIC90 [16]: 0.25 µg/mL (≈ 0.341 µM) | Range [16]: 0.03-8 | MIC90 [17]: 4 µg/mL (≈ 5.45 µM) | Range [17]: 0.06-16 | MIC50 [18]: ≥ 64 µg/mL | MIC90 [18]: ≥ 64 µg/mL | MIC50 [19]: ≥ 64 µg/mL | MIC90 [19]: ≥ 64 µg/mL | MIC50 (Staphylococcus hominis): ≥ 64 µg/mL | MIC90 (Staphylococcus hominis): ≥ 64 µg/mL | MIC50 (Streptococcus agalactiae): 0.03 µg/mL (≈ 0.0409 µM) | Range (Streptococcus agalactiae): 0.03-0.25 | MIC50 (Streptococcus pyogenes): 0.06 µg/mL (≈ 0.0818 µM) | MIC50 (Streptococcus spp.): 0.03 µg/mL (≈ 0.0409 µM) | MIC90 (Streptococcus spp.): 1 µg/mL (≈ 1.36 µM) | MIC90 (Ureaplasma urealyticum): 32 µg/mL (≈ 43.6 µM) | MIC90 [20]: 0.25-0.50 | MIC90 [21]: 0.03 µg/mL (≈ 0.0409 µM) | MIC90 (Streptococcus pneumoniae): 0.03-1.0 | MIC90 [22]: 0.03-0.25 | MIC90 (Viridans streptococci): 0.06 µg/mL (≈ 0.0818 µM) | MIC90 (Listeria monocytogenes [23]): 0.5-2.0 | MIC90 (Moraxella catarrhalis): 0.25-2.0 | MIC90 (Neisseria gonorrhoeae [24]): 0.25-2.0 | MIC90 (N. meningitidis): 0.4-1.6 | MIC90 (Bordetella pertussis [25]): 0.3-1.6 | MIC90 (Legionella pneumophila): 1.0-2.0 | MIC90 (Bacteroides fragilis [26]): 4.0-32.0 | MIC90 (Clostridium perfringens): 1.0 | MIC90 [27]: 0.065-1.0 | MIC90 (Chlamydia trachomatis): 0.12-0.25 | MIC90 (Mycoplasma pneumoniae [28]): 0.004 | MIC90 (S. aureus): about 4 μg/ml | clinical safety [29]: one of the safest antibiotics in current clinical use
